US6667034B2, “METHODS FOR REGULATING THE SPECIFIC LINEAGES OF CELLS PRODUCED IN A HUMAN HEMATOPOIETIC CELL CULTURE, METHODS FOR ASSAYING THE EFFECT OF SUBSTANCES ON LINEAGE-SPECIFIC CELL PRODUCTION, AND CELL COMPOSITIONS PRODUCED BY THESE CULTURES” (The Regents of the University of Michigan, priority 1989, dated 2003)

What was measured:
Assay type in all cases: cell-based
[1] = system: Human bone marrow cells; test: Cumulative number of progenitor cells removed from rapidly perfused HGF supplemented LTBMCs (Example 5, Table 5)
Protocol: Hematopoietic progenitor cell assay: Nonadherent hematopoietic cells removed from culture were counted and plated at 1·10^5 cells/ml or fewer cells in methylcellulose. GM-CSF and Epo were added to the methylcellulose at 20 ng/ml and 2 U/ml, respectively. The cells were plated in 24 well plates at 0.25 ml/well and incubated at 37° C. for 14 days. The colonies were then counted under an inverted microscope and colonies greater than 50 cells were scored as GM-colony forming units (CFU-GM), erythroid burst-forming unit (BFU-E), or granulocyte erythroid megakaryocyte macrophage-colony forming unit (CFU-GEMM). Cells, hematopoietic progenitor cell assays, LTBMCs, and statistical analyses were as in Example 1.

[2] = system: Human bone marrow cells; test: Cumulative cell production by cell lineage in growth factor supplemented LTBMCs over the first 6.5 weeks (Example 5, Table 4); conditions: first 6.5 weeks of culture
Text: Cells, hematopoietic progenitor cell assays, LTBMCs, and statistical analyses were as in Example 1.

[3] = system: Human bone marrow cells; test: Population balance: cumulative production of CFU-GM removed and differentiated in HGF supplemented LTBMCs (Example 5, Table 7)
Text: (§1) Production of Progenitor Cells from Stem Cells. Although the most primitive hematopoietic cells that can be directly assayed are the progenitor cells; CFU-GEMM, CFU-GM, and BFU-E, the presence and activity or earlier stem cells can be inferred by the continued production of progenitor cells. Thus, progenitor cell production is an indirect measure of primitive stem cell activity. One can assay stem cells, therefore, by analyzing the kinetics of the progenitor cell pool. The four process rates that determine the progenitor cell pool size are: V1: The rate of production of progenitor cells by more undifferentiated stem cells; V2: The rate of loss of progenitor cells through the act of sampling of nonadherent cells from the culture; V3: The rate of loss of progenitor cells by their differentiation to mature cells of a particular lineage; V4: The rate of death of progenitor cells. The initial number, C0, of each progenitor cell species can be determined by assay at culture initiation. The question that we wish to answer is; Are stem cells being stimulated to produced progenitor cells—i.e. is V1 greater than zero? Cell death, V4, cannot be assessed. V2 however, can be measured by assaying the nonadherent cells removed from culture, and V3 can be estimated from nonadherent cell production data. A conservative estimate of the rate of progenitor cell differentiation, V3, can be determined by assuming that each progenitor cell has 10 divisions remaining to become a terminally differentiated cell. Therefore, each progenitor cell is equivalent to 2^10 (1024) mature cells. From the total number of mature cells produced of a specific lineage, the number of progenitor cells (BFU-E and CFU-GM) that differentiated can be back-calculated. Therefore, if the removal and differentiation of progenitor cells (V2+V3) exceeds the numbers of progenitor cells inoculated, Co, then progenitor cells must have been produced, and V1 is greater than zero.

[4] = system: Human bone marrow cells; test: Population balance: cumulative production of BFU-E removed and differentiated in HGF supplemented LTBMCs (Example 5, Table 6)
Text: as §1

[5] = cumulative, rapidly perfused LTBMCs
[6] = rapidly perfused HGF supplemented LTBMCs
[7] = IL-3 1 ng/ml, GM-CSF 1 ng/ml, Epo 0.1 U/ml, IL-6 10 U/ml, G-CSF 0.1 ng/ml
[8] = back-calculated assuming each progenitor cell is equivalent to 2^10 (1024) mature cells

GM-CSF: hematopoietic growth factor, 1 ng/ml (Amgen Biologicals, Cat. No. 13050)
increase in the total number of CFU-GEMM removed from culture [1, 5]: 1.6 fold | effect on total CFU-GM ([1]; individual growth factor): only a slight increase | cumulative number of progenitor cells removed: BFU-E [1, 6]: 800 | cumulative number of progenitor cells removed: CFU-GEMM [1, 6]: 80 | cumulative number of progenitor cells removed: CFU-GM [1, 6]: 2200 | Cumulative cell production: Early Granulocytes (EG) [2, 7]: 2.7 ×10^6 cells per culture | Cumulative cell production: Erythroid (E) [2, 7]: 0.11 ×10^6 cells per culture | Cumulative cell production: Late Granulocytes (LG) [2, 7]: 6.8 ×10^6 cells per culture | Cumulative cell production: Macrophages (Mo) [2, 7]: 2.1 ×10^6 cells per culture | ratio (LG/EG) ([2]; late to early granulocytes): 2.5 | Estimated number of CFU-GM that differentiated (V3) [3, 8]: 11,700 | Number of GM cells removed (×10^4) (V3) [3, 5]: 11.7 ×10^4 | Number of CFU-GM removed (plated) (V2) ([3]; every fourth biweekly sampling assayed, others by linear interpolation, inoculum 2500 CFU-GM): 2200 | Total number of CFU-GM (V3) ([3]; removed plus differentiated): 13,900 | Estimated number of BFU-E that differentiated (V3) [4, 8]: 100 | Number of erythroid cells removed (×10^4) (V3) [4, 5]: 0.1 ×10^4 | Number of BFU-E removed (plated) (V3) ([4]; every fourth biweekly sampling assayed, others by linear interpolation, inoculum 2900 BFU-E): 800 | Total number of BFU-E (V3) ([4]; removed plus differentiated, inoculum 2900): 900
